Experimental data taken from patent US6469056B1, “Pharmaceutically active compounds, their preparation and use as ECE-inhibitors” (Abbott Laboratories, priority 1997, dated 2002).

Tests used:
Type in all cases: biochemical
[1] = biological target: ACE (angiotensin converting enzyme) (Homo sapiens, UniProt P12821); experiment: ACE inhibition
[2] = biological target: T1, recombinant human ECE from CHO cells (Homo sapiens, UniProt P42892); experiment: ECE inhibitor test, IC50 determination (Big ET1 cleavage, HPLC); settings: Big ET1 substrate, 1 hour at 37° C., pH 7.2
T1 construct: made in house; host or cells: CHO cells
T1 sequence (P42892 1-770): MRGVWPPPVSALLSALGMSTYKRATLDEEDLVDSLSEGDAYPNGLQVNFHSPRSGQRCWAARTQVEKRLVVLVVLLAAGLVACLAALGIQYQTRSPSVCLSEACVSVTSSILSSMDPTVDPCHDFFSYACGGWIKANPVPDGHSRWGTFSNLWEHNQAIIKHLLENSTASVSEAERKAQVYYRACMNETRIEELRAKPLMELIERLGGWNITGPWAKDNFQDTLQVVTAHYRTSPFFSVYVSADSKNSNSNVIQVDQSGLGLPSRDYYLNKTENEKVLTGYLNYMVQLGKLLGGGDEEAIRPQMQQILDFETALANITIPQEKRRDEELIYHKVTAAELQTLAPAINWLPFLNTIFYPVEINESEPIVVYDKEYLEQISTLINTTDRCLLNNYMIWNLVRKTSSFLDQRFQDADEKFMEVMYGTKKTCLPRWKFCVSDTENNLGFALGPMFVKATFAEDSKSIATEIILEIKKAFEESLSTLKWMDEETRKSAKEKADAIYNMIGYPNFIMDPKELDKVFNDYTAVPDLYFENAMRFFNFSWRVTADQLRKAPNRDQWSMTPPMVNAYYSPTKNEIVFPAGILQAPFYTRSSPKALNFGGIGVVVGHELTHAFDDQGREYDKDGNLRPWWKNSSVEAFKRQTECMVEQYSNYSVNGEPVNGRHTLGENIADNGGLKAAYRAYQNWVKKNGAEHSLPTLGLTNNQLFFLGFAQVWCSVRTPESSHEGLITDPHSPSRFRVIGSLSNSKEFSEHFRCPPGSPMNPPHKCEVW
Method: ECE Inhibitor Tests, IC50 Determinations
Inhibitors of endothelin converting enzyme (ECE) were tested using recombinant human ECE from CHO cells as described in Schmidt et al. (FEBS Letters 356, 1994: 238-243).
The enzyme preparations employed were, after membrane isolation and solubilization, further purified by Mono-Q chromatography and WGA lectin chromatography. The preparations obtained in this way contained no interfering foreign protease activities and had specific activities in the range 1-20 mU/mg. 5 μl of this enzyme solution were preincubated with 495 μl of test buffer (100 mM Pi, 500 mM NaCl, 0,1 mg/ml BSA pH 7.2) and with in each case 5 μl of appropriately concentrated solutions (10^−3 M, 10^−4 M, 10^−5 M etc.) of the inhibitors in the test buffer for 10 minutes. 50 μl aliquots were mixed with 5 μl of 2×10^−3 M Big ET1 solution (=Big Endothelin1) in 0.02% acetic acid. The mixtures were stopped after 1 hour at 37° C. by adding 150 μl of 0.5% TFA (=trifluoroacetic acid) in water, and centrifuged at 10000×g for 5 minutes, and the enzyme reaction was determined by measuring the endothelin formed by means of reversed phase HPLC as described in Takada et al. (Biochem. Biophys. Res. Comm. 176, 1991, 860), K. Ohnaka et al. (Biochem. Biophys. Res. Commun. 168, 1990, 1128). An inhibition plot was produced from the values of the inhibition at the various inhibitor concentrations, and the half-maximum inhibition (IC50) was read off as a measure of the strength of the inhibitory effect.

[3] = biological target: NEP 24.11 (neutral endopeptidase 24.11) (Homo sapiens, UniProt P08473); experiment: NEP 24.11 inhibition
Chain of NEP 24.11 (neutral endopeptidase 24.11) (P08473 whole entry, species assumed): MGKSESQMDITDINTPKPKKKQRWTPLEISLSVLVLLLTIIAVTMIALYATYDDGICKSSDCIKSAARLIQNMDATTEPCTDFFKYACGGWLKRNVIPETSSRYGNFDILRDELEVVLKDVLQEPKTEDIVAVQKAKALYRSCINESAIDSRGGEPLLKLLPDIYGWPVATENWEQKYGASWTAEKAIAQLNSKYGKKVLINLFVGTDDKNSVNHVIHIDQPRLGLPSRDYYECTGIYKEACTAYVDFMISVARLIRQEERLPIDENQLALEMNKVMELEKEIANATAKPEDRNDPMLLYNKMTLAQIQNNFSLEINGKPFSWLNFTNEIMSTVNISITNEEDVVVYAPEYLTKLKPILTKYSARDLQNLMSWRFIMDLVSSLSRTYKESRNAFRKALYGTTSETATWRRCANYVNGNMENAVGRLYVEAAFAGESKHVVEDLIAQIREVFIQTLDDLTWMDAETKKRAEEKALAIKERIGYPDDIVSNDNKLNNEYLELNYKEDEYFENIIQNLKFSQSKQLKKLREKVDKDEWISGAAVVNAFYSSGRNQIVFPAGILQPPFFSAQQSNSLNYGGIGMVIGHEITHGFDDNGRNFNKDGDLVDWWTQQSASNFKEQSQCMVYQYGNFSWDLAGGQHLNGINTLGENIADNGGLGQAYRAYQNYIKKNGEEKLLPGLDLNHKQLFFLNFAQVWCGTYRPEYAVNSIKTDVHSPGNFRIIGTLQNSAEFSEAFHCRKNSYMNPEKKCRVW

Chain of ACE (angiotensin converting enzyme) (P12821 30-1306, species assumed): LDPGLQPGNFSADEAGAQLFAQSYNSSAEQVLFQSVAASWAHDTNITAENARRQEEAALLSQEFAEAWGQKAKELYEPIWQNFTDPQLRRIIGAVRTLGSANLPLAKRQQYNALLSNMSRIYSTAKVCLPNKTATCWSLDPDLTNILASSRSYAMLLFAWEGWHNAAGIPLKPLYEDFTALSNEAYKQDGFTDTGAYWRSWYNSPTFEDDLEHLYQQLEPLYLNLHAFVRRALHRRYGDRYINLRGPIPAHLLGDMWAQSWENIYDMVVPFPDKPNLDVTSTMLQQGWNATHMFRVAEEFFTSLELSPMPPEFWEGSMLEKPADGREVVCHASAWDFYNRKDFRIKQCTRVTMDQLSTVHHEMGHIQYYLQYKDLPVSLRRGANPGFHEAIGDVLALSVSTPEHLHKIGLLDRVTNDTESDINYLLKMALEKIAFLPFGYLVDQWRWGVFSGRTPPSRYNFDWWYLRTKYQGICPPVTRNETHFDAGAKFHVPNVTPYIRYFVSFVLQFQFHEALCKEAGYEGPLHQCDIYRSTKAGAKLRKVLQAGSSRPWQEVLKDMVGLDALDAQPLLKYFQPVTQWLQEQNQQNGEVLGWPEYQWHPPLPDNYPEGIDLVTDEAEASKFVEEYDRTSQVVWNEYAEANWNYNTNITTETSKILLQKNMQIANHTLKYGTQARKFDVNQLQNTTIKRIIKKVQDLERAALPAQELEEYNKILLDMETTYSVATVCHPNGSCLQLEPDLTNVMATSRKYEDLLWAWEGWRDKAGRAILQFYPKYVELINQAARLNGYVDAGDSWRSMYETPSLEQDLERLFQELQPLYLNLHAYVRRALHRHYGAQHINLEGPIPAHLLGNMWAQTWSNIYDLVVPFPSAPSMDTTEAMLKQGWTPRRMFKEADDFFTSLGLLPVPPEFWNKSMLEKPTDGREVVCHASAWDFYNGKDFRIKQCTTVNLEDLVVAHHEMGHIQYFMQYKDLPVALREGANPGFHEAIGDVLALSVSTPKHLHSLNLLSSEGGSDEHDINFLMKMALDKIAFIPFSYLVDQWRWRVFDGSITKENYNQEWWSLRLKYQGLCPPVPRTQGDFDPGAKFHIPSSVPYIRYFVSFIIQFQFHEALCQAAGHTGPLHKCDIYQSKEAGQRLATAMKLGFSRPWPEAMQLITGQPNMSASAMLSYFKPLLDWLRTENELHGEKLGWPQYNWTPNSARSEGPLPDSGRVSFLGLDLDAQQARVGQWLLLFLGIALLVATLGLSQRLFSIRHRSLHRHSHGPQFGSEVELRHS

IC50 [1] [µM] | IC50 [2] [µM] | IC50 [3] [µM] | Compound
> 100 | 2 | > 100 | O=C(N[C@@H](Cc1ccccc1)CN(C(=O)c1ccc(Cl)s1)[C@@H](Cc1ccccc1)C(=O)O)OCC1c2ccccc2-c2ccccc21 [Compound 1a]
> 100 | 3 | > 100 | CC(C)(C)SSC[C@@H](CN(C(=O)c1ccc(Cl)s1)[C@@H](Cc1ccccc1)C(=O)O)NC(=O)OCC1c2ccccc2-c2ccccc21 [Compound 1b]
> 100 | 4 | > 100 | O=C(N[C@@H](Cc1ccccc1)CN(C(=O)c1ccc2ccccc2c1)[C@@H](Cc1ccccc1)C(=O)O)OCC1c2ccccc2-c2ccccc21 [Compound 1e]
